Source: PubChem BioAssay (NCI)
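Protocol summary: plate cells (96-well), add compound at 5 concentrations, incubate 48 h, interpolate endpoints linearly. GI50 = concentration required for 50% inhibition of growth. TGI denotes the concentration required for complete inhibition of growth.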

What was measured:
Test in all cases: growth of human tumour cells (NCI), 48 h
OVCAR-4 ovarian = tested on: OVCAR-4 ovarian
SK-OV-3 ovarian = tested on: SK-OV-3 ovarian
SK-MEL-5 melanoma = tested on: SK-MEL-5 melanoma
RPMI-8226 leukemia = tested on: RPMI-8226 leukemia
MDA-MB-435 = tested on: MDA-MB-435
HCC-2998 colon = tested on: HCC-2998 colon
HCT-116 colon = tested on: HCT-116 colon
HL-60(TB) leukemia = tested on: HL-60(TB) leukemia
786-0 renal = tested on: 786-0 renal
SW-620 colon = tested on: SW-620 colon
RXF 393 renal = tested on: RXF 393 renal
SNB-75 CNS = tested on: SNB-75 CNS
HOP-92 NSCLC = tested on: HOP-92 NSCLC
HS 578T breast = tested on: HS 578T breast
M14 melanoma = tested on: M14 melanoma
SK-MEL-28 melanoma = tested on: SK-MEL-28 melanoma
SF-539 CNS = tested on: SF-539 CNS
NCI/ADR-RES ovarian = tested on: NCI/ADR-RES ovarian
NCI-H460 lung = tested on: NCI-H460 lung
CAKI-1 renal = tested on: CAKI-1 renal
COLO 205 colon = tested on: COLO 205 colon
TK-10 renal = tested on: TK-10 renal
SK-MEL-2 melanoma = tested on: SK-MEL-2 melanoma
U251 CNS = tested on: U251 CNS
MDA-MB-231 breast = tested on: MDA-MB-231 breast
NCI-H522 lung = tested on: NCI-H522 lung
SR leukemia = tested on: SR leukemia
CCRF-CEM leukemia = tested on: CCRF-CEM leukemia
LOX IMVI melanoma = tested on: LOX IMVI melanoma
SN12C renal = tested on: SN12C renal
MOLT-4 leukemia = tested on: MOLT-4 leukemia
BT-549 breast = tested on: BT-549 breast
SF-295 CNS = tested on: SF-295 CNS
A498 renal = tested on: A498 renal
NCI-H226 lung = tested on: NCI-H226 lung
SNB-19 CNS = tested on: SNB-19 CNS
HOP-62 NSCLC = tested on: HOP-62 NSCLC
EKVX NSCLC = tested on: EKVX NSCLC
UACC-62 melanoma = tested on: UACC-62 melanoma
UO-31 renal = tested on: UO-31 renal
T-47D breast = tested on: T-47D breast
HCT-15 colon = tested on: HCT-15 colon
OVCAR-8 ovarian = tested on: OVCAR-8 ovarian
KM12 colon = tested on: KM12 colon
ACHN renal = tested on: ACHN renal
SF-268 CNS = tested on: SF-268 CNS
K-562 leukemia = tested on: K-562 leukemia
MALME-3M melanoma = tested on: MALME-3M melanoma
A549 NSCLC = tested on: A549 NSCLC
DU-145 prostate = tested on: DU-145 prostate
MCF7 breast = tested on: MCF7 breast
OVCAR-3 ovarian = tested on: OVCAR-3 ovarian
PC-3 prostate = tested on: PC-3 prostate
HT29 colon = tested on: HT29 colon
UACC-257 melanoma = tested on: UACC-257 melanoma
NCI-H23 lung = tested on: NCI-H23 lung
OVCAR-5 ovarian = tested on: OVCAR-5 ovarian

ClCc1cccc2c(CCl)cccc12
GI50 (OVCAR-4 ovarian): 12 µM
TGI (OVCAR-4 ovarian): 75.7 µM
GI50 (SK-OV-3 ovarian): 21.2 µM
TGI (SK-OV-3 ovarian): > 100 µM
GI50 (SK-MEL-5 melanoma): 8.23 µM
TGI (SK-MEL-5 melanoma): 21.4 µM
GI50 (RPMI-8226 leukemia): 2 µM
TGI (RPMI-8226 leukemia): 7.41 µM
GI50 (MDA-MB-435): 4.28 µM
TGI (MDA-MB-435): 18.7 µM
GI50 (HCC-2998 colon): 2.48 µM
TGI (HCC-2998 colon): 8.3 µM
GI50 (HCT-116 colon): 4.18 µM
TGI (HCT-116 colon): 19.1 µM
GI50 (HL-60(TB) leukemia): 4.49 µM
TGI (HL-60(TB) leukemia): > 100 µM
GI50 (786-0 renal): 3.93 µM
TGI (786-0 renal): 18.9 µM
GI50 (SW-620 colon): 3.4 µM
TGI (SW-620 colon): 19.1 µM
GI50 (RXF 393 renal): 3.33 µM
TGI (RXF 393 renal): 18 µM
GI50 (SNB-75 CNS): 2.1 µM
TGI (SNB-75 CNS): 14.6 µM
GI50 (HOP-92 NSCLC): 2.83 µM
TGI (HOP-92 NSCLC): 18.7 µM
GI50 (HS 578T breast): 1.86 µM
TGI (HS 578T breast): 6.7 µM
GI50 (M14 melanoma): 5.95 µM
TGI (M14 melanoma): 23.4 µM
GI50 (SK-MEL-28 melanoma): 10.9 µM
TGI (SK-MEL-28 melanoma): 24.4 µM
GI50 (SF-539 CNS): 2.86 µM
TGI (SF-539 CNS): 11.7 µM
GI50 (NCI/ADR-RES ovarian): 2.58 µM
TGI (NCI/ADR-RES ovarian): 12.1 µM
GI50 (NCI-H460 lung): 0.767 µM
TGI (NCI-H460 lung): 2.65 µM
GI50 (CAKI-1 renal): 1.48 µM
TGI (CAKI-1 renal): 4.28 µM
GI50 (COLO 205 colon): 2.4 µM
TGI (COLO 205 colon): 7.14 µM
GI50 (TK-10 renal): 2.28 µM
TGI (TK-10 renal): 7.46 µM
GI50 (SK-MEL-2 melanoma): 20.4 µM
TGI (SK-MEL-2 melanoma): 67.4 µM
GI50 (U251 CNS): 2.89 µM
TGI (U251 CNS): 11.6 µM
GI50 (MDA-MB-231 breast): 13 µM
TGI (MDA-MB-231 breast): 39 µM
GI50 (NCI-H522 lung): 2.83 µM
TGI (NCI-H522 lung): 16.3 µM
GI50 (SR leukemia): 0.901 µM
TGI (SR leukemia): > 100 µM
GI50 (CCRF-CEM leukemia): 2.31 µM
TGI (CCRF-CEM leukemia): > 100 µM
GI50 (LOX IMVI melanoma): 1.39 µM
TGI (LOX IMVI melanoma): 4.3 µM
GI50 (SN12C renal): 3.47 µM
TGI (SN12C renal): 32.2 µM
GI50 (MOLT-4 leukemia): 3.98 µM
TGI (MOLT-4 leukemia): > 100 µM
GI50 (BT-549 breast): 3.99 µM
TGI (BT-549 breast): 16.7 µM
GI50 (SF-295 CNS): 5.59 µM
TGI (SF-295 CNS): 19.5 µM
GI50 (A498 renal): 11 µM
TGI (A498 renal): 23.7 µM
GI50 (NCI-H226 lung): 12 µM
TGI (NCI-H226 lung): 30.6 µM
GI50 (SNB-19 CNS): 5.08 µM
TGI (SNB-19 CNS): 19.7 µM
GI50 (HOP-62 NSCLC): 3.24 µM
TGI (HOP-62 NSCLC): 10.2 µM
GI50 (EKVX NSCLC): 2.83 µM
TGI (EKVX NSCLC): 16.6 µM
GI50 (UACC-62 melanoma): 3.25 µM
TGI (UACC-62 melanoma): 23.3 µM
GI50 (UO-31 renal): 2.2 µM
TGI (UO-31 renal): 8.87 µM
GI50 (T-47D breast): 1.81 µM
TGI (T-47D breast): 10.5 µM
GI50 (HCT-15 colon): 5.92 µM
TGI (HCT-15 colon): 30.1 µM
GI50 (OVCAR-8 ovarian): 4.29 µM
TGI (OVCAR-8 ovarian): 33.6 µM
GI50 (KM12 colon): 1.55 µM
TGI (KM12 colon): 3.48 µM
GI50 (ACHN renal): 2.19 µM
TGI (ACHN renal): 6.21 µM
GI50 (SF-268 CNS): 2.95 µM
TGI (SF-268 CNS): 15 µM
GI50 (K-562 leukemia): 10.5 µM
TGI (K-562 leukemia): > 100 µM
GI50 (MALME-3M melanoma): 2.37 µM
TGI (MALME-3M melanoma): 25.5 µM
GI50 (A549 NSCLC): 8.77 µM
TGI (A549 NSCLC): 24 µM
GI50 (DU-145 prostate): 1.76 µM
TGI (DU-145 prostate): 4.08 µM
GI50 (MCF7 breast): 0.871 µM
TGI (MCF7 breast): 7.54 µM
GI50 (OVCAR-3 ovarian): 1.76 µM
TGI (OVCAR-3 ovarian): 3.83 µM
GI50 (PC-3 prostate): 4.21 µM
TGI (PC-3 prostate): 19.7 µM
GI50 (HT29 colon): 2.88 µM
TGI (HT29 colon): 11.2 µM
GI50 (UACC-257 melanoma): 2.6 µM
TGI (UACC-257 melanoma): 12.6 µM
GI50 (NCI-H23 lung): 5.2 µM
TGI (NCI-H23 lung): 22.8 µM
GI50 (OVCAR-5 ovarian): 12.7 µM
TGI (OVCAR-5 ovarian): 27.9 µM
